The values below come from the supplement of paper PMC11208160.

A short description of this series: recombinant barcode read abundance after kanamycin selection (control-corrected) (log10(CPM+1)); higher = more efficient recombination; sequences stand for … in AGTGCAGAGAAAATCGGCCAGTTTTCTCTGCCTGCAGTCCGCATGCCGT…AGATTTATGCAGCGGACTGCCTTTCTCCCAAAGTGATAAACCGGACAGTATCATGGACCGGTTTTCCCGGTAATCCGTATTTGCAAGGTTGGTTTCACT; site = the 11-nt target. The procedure, abridged:
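IS621 bridge RNA target-binding loops were paired with targets in a pooled library tested in E. coli. After co-electroporation with a donor plasmid, cells were plated in two replicates on chloramphenicol/ampicillin LB agar (control) and on chloramphenicol/ampicillin/kanamycin carrying 0.1 mM IPTG. Barcodes at recombinant junctions were counted as counts per million, averaged and control-corrected to give recombination efficiency. Values are log10(CPM+1).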
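Also: IS621 recombinase and bridge RNA in Escherichia coli cells.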

On to “TCGAGTCCTTGGGTTCTAACCTGTTGCCT (site TCGAGTCCTAG)”, for which the “recombinant barcode read abundance (log10)” value came to 0.101.

Turning to “TCGAGTCCTTGGGTTCTAACCTGTTGCCT (site TCGAGTGCTAG)”, the “recombinant barcode read abundance (log10)” value amounted to 0.179. Turning to “TCGAGTCCTTGGGTTCTAACCTGTTGCCT (site TCGAGTTCTAG)”, the “recombinant barcode read abundance (log10)” value came out at 0.0383.

Consider “TCGAGTTCTTGGGTTCTAACCTGTTGCCT (site TCGAGTACTAG)”, for which the “recombinant barcode read abundance (log10)” value is 0.0829. In the case of “TCGAGTTCTTGGGTTCTAACCTGTTGCCT (site TCGAGTCCTAG)”, the “recombinant barcode read abundance (log10)” value worked out at 0.0637.

Regarding “TCGAGTTCTTGGGTTCTAACCTGTTGCCT (site TCGAGTGCTAG)”, the “recombinant barcode read abundance (log10)” value was 0.0736. As to “TCGAGTTCTTGGGTTCTAACCTGTTGCCT (site TCGAGTTCTAG)”, the “recombinant barcode read abundance (log10)” value stood at 0.174.

Turning to “TCGCACACTTGGGTTCTAACCTGTTGCTA (site TCGCACACTTA)”, the “recombinant barcode read abundance (log10)” value was found to be 0.148. As to “TCGCACACTTGGGTTCTAACCTGTTGCTA (site TCGCACTCTTA)”, the “recombinant barcode read abundance (log10)” value came out at 0.0853. The same measure for “TCGCCTGCTTGGGTTCTAACCTGTTGCCT (site TCGCCTACTAG)”: 0.282; for “TCGCCTGCTTGGGTTCTAACCTGTTGCCT (site TCGCCTGCTAG)”: 0.191; for “TCGCTAACTTGGGTTCTAACCTGTTGCCT (site GCGCTAACTAG)”: 0.145.

“TCGCTAACTTGGGTTCTAACCTGTTGCCT (site TCGCTAACTAG)”: the “recombinant barcode read abundance (log10)” value turned out to be 0.322. Turning to “TCGGACCCTTGGGTTCTAACCTGTTGCGA (site TCGAACCCTTC)”, the “recombinant barcode read abundance (log10)” value turned out to be 1. With “TCGGACCCTTGGGTTCTAACCTGTTGCGA (site TCGCACCCTTC)”, the “recombinant barcode read abundance (log10)” value turned out to be 0.12.

On to “TCGGACCCTTGGGTTCTAACCTGTTGCGA (site TCGGACCCTTC)”, for which the “recombinant barcode read abundance (log10)” value turned out to be 2.73. With “TCGGACCCTTGGGTTCTAACCTGTTGCGA (site TCGTACCCTTC)”, the “recombinant barcode read abundance (log10)” value was 0.23.

For “TCGGAGTCTTGGGTTCTAACCTGTTGCCG (site TCGGAGTCTCA)”, the “recombinant barcode read abundance (log10)” value was found to be 0.0935. In the case of “TCGGAGTCTTGGGTTCTAACCTGTTGCCG (site TCGGAGTCTCG)”, the “recombinant barcode read abundance (log10)” value is 1.17. As for “TCGGAGTCTTGGGTTCTAACCTGTTGCGT (site TCGGAGTCTAA)”, the “recombinant barcode read abundance (log10)” value came to 0.499. On to “TCGGAGTCTTGGGTTCTAACCTGTTGCGT (site TCGGAGTCTAC)”, for which the “recombinant barcode read abundance (log10)” value amounted to 2.55. The same measure for “TCGGAGTCTTGGGTTCTAACCTGTTGCGT (site TCGGAGTCTAG)”: 0.969; for “TCGGAGTCTTGGGTTCTAACCTGTTGCGT (site TCGGAGTCTAT)”: 2.39.

As to “TCGGATACTTGGGTTCTAACCTGTTGCAT (site TCGGATACTAA)”, the “recombinant barcode read abundance (log10)” value is 0.31.

As for “TCGGATACTTGGGTTCTAACCTGTTGCAT (site TCGGATACTAC)”, the “recombinant barcode read abundance (log10)” value came to 0.0629. The same measure for “TCGGATACTTGGGTTCTAACCTGTTGCAT (site TCGGATACTAG)”: 0.173. “TCGGATACTTGGGTTCTAACCTGTTGCAT (site TCGGATACTAT)”: the “recombinant barcode read abundance (log10)” value worked out at 1.57. Consider “TCGGATACTTGGGTTCTAACCTGTTGCCT (site TCGGATACTAA)”, for which the “recombinant barcode read abundance (log10)” value stood at 0.119. With “TCGGATACTTGGGTTCTAACCTGTTGCCT (site TCGGATACTAC)”, the “recombinant barcode read abundance (log10)” value amounted to 0.0175. Take “TCGGATACTTGGGTTCTAACCTGTTGCCT (site TCGGATACTAG)”: the “recombinant barcode read abundance (log10)” value was 1.54. The same measure for “TCGGATACTTGGGTTCTAACCTGTTGCCT (site TCGGATACTAT)”: 0.0399; for “TCGGATACTTGGGTTCTAACCTGTTGCGT (site TCGGATACTAA)”: 0.0447.
